Measured values published in patent publication US20100168103A1, “DIARYL PIPERIDINE COMPOUNDS AS CALCIUM CHANNEL BLOCKERS” (NEUROMED PHARMACEUTICALS LTD., priority 2006, published 2010).
Read-outs that look alike come from different tables or passages of the source.

Biological target: T1, rat brain N-type calcium channel subunits (α1B+α2δ+β1b cDNA subunits) (Rattus norvegicus, UniProt Q02294)
T1 construct: expressed in transfected cells; host or cells: HEK 293
Assay: N-type calcium channel block, whole cell patch clamp in transfected HEK 293 cells
Type: cell-based
Conditions: holding potential −80 mV to +10 mV
Method: N-type calcium channel blocking activity was assayed in human embryonic kidney cells, HEK 293, stably transfected with the rat brain N-type calcium channel subunits (α1B+α2δ+β1b cDNA subunits). Alternatively, N-type calcium channels (α1B+α2δ+β1b cDNA subunits), L-type channels (α1C+α2δ+β1b cDNA subunits) and P/Q-type channels (α1A+α2δ+β1b cDNA subunits) were transiently expressed in HEK 293 cells. Briefly, cells were cultured in Dulbecco's modified eagle medium (DMEM) supplemented with 10% fetal bovine serum, 200 U/ml penicillin and 0.2 mg/ml streptomycin at 37° C. with 5% CO2. At 85% confluency cells were split with 0.25% trypsin/1 mM EDTA and plated at 10% confluency on glass coverslips. At 12 hours the medium was replaced and the cells transiently transfected using a standard calcium phosphate protocol and the appropriate calcium channel cDNA's. Fresh DMEM was supplied and the cells transferred to 28° C./5% CO2. Cells were incubated for 1 to 2 days prior to whole cell recording.
Whole cell patch clamp experiments were performed using an Axopatch 200B amplifier (Axon Instruments, Burlingame, Calif.) linked to a personal computer equipped with pCLAMP software. The external and internal recording solutions contained, respectively, 5 mM BaCl2, 10 mM MgCl2, 10 mM HEPES, 40 mM TEACl, 10 mM glucose, 87.5 mM CsCl (pH 7.2) and 108 mM CsMS, 4 mM MgCl2, 9 mM EGTA, 9 mM HEPES (pH 7.2). Currents were typically elicited from a holding potential of −80 mV to +10 mV using Clampex software (Axon Instruments). Typically, currents were first elicited with low frequency stimulation (0.067 Hz) and allowed to stabilize prior to application of the compounds. The compounds were then applied during the low frequency pulse trains for two to three minutes to assess tonic block, and subsequently the pulse frequency was increased to 0.2 Hz to assess frequency dependent block. Data were analyzed using Clampfit (Axon Instruments) and SigmaPlot 4.0 (Jandel Scientific).

[1] = low frequency stimulation 0.067 Hz (tonic block), 5 mM BaCl2, read-out: IC50 @ 0.067 Hz
[2] = pulse frequency 0.2 Hz (frequency dependent block), 5 mM BaCl2, read-out: IC50 @ 0.2 Hz

T1 sequence (Q02294 whole entry): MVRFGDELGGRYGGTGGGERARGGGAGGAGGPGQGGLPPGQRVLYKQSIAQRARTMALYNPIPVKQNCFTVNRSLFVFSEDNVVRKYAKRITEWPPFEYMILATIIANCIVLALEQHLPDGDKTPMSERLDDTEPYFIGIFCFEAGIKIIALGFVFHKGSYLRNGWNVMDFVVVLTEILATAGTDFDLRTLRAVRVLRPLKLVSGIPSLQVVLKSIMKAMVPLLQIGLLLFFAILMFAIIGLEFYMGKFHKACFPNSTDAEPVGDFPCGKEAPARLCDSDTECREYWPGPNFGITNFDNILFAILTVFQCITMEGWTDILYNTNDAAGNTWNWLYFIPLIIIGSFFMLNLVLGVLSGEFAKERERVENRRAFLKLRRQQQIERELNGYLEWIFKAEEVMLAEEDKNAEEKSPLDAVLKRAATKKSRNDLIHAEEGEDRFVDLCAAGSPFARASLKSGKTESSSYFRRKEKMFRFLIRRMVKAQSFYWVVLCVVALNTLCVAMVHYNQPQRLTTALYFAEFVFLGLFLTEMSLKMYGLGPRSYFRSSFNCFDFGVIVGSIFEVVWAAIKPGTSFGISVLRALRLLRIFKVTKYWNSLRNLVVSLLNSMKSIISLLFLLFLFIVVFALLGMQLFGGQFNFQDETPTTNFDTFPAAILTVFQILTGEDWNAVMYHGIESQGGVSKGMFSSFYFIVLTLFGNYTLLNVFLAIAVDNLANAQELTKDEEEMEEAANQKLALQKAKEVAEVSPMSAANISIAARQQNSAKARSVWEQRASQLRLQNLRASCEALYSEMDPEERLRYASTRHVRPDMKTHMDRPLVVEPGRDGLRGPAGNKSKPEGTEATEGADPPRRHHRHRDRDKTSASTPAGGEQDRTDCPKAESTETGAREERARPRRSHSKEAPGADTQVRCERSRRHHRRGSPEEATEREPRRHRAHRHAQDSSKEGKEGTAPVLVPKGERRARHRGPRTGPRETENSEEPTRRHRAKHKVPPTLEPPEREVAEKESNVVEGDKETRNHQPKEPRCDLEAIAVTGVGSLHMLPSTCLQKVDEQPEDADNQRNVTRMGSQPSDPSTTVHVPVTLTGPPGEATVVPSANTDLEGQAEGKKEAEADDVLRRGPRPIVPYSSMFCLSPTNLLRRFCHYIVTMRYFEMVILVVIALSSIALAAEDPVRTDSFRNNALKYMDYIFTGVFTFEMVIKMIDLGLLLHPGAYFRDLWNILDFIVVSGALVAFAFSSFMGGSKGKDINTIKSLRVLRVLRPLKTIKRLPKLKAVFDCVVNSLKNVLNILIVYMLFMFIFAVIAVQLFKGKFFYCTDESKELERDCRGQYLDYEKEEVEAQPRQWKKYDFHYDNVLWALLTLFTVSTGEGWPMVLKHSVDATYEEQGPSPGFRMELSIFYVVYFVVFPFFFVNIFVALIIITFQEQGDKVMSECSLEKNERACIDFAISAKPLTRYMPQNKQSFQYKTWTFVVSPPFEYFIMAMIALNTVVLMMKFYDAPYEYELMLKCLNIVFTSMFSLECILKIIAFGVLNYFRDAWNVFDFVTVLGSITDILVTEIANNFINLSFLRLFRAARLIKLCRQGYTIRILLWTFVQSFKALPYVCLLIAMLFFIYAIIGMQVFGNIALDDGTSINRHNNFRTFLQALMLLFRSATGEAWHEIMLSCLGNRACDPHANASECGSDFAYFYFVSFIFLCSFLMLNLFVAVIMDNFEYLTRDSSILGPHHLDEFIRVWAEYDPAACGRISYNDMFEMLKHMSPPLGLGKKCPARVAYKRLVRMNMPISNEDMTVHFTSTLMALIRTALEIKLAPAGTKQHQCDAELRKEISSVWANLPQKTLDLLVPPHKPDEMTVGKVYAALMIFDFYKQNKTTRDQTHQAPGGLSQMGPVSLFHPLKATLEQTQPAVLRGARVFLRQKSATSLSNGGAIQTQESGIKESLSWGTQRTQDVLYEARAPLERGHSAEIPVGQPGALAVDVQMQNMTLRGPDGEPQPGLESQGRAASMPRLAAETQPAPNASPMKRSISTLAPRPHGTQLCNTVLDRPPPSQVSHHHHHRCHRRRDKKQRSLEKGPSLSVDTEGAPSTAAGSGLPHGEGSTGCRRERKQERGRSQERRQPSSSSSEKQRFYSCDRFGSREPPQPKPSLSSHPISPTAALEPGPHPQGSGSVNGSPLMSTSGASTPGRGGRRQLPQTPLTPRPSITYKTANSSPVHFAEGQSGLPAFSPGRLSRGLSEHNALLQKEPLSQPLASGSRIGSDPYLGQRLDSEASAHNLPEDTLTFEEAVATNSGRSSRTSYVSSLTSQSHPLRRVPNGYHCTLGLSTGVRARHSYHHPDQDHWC
T1 sequence (P54290 25-944 partner limits assumed): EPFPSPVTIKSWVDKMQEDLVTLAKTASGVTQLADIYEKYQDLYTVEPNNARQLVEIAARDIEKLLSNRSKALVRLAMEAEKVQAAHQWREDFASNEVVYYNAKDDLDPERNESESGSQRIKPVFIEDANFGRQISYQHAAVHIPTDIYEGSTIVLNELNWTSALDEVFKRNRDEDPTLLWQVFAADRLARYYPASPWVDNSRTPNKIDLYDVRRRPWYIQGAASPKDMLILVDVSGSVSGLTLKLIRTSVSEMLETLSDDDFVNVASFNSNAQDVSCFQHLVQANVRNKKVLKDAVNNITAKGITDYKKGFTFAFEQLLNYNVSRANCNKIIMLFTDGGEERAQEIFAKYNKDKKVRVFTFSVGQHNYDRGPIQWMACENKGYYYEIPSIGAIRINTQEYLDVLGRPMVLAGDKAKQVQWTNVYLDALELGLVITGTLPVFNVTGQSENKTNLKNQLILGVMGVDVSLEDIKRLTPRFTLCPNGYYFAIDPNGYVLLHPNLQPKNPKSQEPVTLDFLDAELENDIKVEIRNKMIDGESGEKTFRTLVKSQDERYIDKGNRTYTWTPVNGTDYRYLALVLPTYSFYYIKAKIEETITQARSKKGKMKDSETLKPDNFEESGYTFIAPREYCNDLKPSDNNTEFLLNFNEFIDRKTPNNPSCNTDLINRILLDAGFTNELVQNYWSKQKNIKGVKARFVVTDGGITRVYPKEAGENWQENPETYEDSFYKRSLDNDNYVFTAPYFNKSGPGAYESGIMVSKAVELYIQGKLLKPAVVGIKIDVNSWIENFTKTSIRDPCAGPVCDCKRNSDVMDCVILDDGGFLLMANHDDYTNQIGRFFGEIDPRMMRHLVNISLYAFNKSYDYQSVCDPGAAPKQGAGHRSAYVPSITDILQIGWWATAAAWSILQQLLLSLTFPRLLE
T1 sequence (P54290 945-1091 partner limits assumed): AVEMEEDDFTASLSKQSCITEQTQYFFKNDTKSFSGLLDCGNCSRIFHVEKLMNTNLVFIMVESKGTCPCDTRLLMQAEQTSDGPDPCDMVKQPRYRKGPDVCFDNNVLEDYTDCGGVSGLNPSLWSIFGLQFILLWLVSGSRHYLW
T1 sequence (P54283 whole entry partner): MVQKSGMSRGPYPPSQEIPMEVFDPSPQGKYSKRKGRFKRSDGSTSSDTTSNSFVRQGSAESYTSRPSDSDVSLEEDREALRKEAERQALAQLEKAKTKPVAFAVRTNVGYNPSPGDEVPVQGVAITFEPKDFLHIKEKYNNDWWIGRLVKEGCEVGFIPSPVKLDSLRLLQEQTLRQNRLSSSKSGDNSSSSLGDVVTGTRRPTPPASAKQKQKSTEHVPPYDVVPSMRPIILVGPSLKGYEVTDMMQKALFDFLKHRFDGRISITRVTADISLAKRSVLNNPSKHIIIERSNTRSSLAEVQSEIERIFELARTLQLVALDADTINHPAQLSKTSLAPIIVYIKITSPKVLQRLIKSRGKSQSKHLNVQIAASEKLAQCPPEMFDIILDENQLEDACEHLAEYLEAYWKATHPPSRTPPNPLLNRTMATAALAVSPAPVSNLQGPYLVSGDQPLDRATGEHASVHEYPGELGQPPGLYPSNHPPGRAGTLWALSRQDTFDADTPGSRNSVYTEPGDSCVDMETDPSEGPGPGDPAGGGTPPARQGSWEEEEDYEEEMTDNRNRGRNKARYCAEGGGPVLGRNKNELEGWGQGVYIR

| IC50 [1] [nM] | IC50 [2] [nM] | Structure (SMILES) |
| --- | --- | --- |
| > 5650 | > 3830 | CN1CCN(CC2CCN(C(=O)COC(c3ccccc3)c3ccccc3)CC2)CC1 [Compound 4, 2-(benzhydryloxy)-1-(4-((4-methylpiperazin-1-yl)methyl)piperidin-1-yl)ethanone] |
| 4790 | 2380 | CN1CCN(C(=O)C2CCN(C(=O)CNC(c3ccccc3)c3ccccc3)CC2)CC1 [Compound 7, 2-(benzhydrylamino)-1-(4-(4-methylpiperazine-1-carbonyl)piperidin-1-yl)ethanone] |
| 5110 | 1730 | CN1CCN(C(=O)C2CCN(C(=O)COC(c3ccccc3)c3ccccc3)CC2)CC1 [Compound 8, 2-(benzhydryloxy)-1-(4-(4-methylpiperazine-1-carbonyl)piperidin-1-yl)ethanone] |
| 2520 | 1720 | CN1CCN(CC2CCN(C(=O)CC(c3ccccc3)c3ccccc3)CC2)CC1 [Compound 10, 1-(4-((4-methylpiperazin-1-yl)methyl)piperidin-1-yl)-3,3-diphenylpropanon-1-one] |
| 28400 | 1500 | CN1CCN(CC2CCN(C(=O)NC(c3ccccc3)c3ccccc3)CC2)CC1 [Compound 11, N-benzhydryl-4-((4-methylpiperazine-1-yl)methyl)piperidine-1-carboxamide] |
| 1260 | 750 | CN1CCN(C(=O)C2CCN(C(=O)CC(c3ccccc3)c3ccccc3)CC2)CC1 [Compound 12, 1-(4-(4-methylpiperazine-1-carbonyl)piperidin-1-yl)-3,3-diphenylpropan-1-one] |
| 4480 | 2210 | CN1CCN(C(=O)C2CCN(C(=O)NC(c3ccccc3)c3ccccc3)CC2)CC1 [Compound 13, N-benzhydryl-4-(4-methylpiperazine-1-carbonyl)piperidine-1-carboxamide] |
| 1900 | 1060 | Cc1ccccc1C(CC(=O)N1CCC(CN2CCN(C)CC2)CC1)c1ccccc1C [Compound 14, 1-(4-((4-methylpiperazin-1-yl)methyl)piperidin-1-yl)-3,3-di-o-tolylpropan-1-one] |
| 1850 | 1640 | Cc1ccccc1C(CC(=O)N1CCC(CN2CC(C)NC(C)C2)CC1)c1ccccc1C (centres unmarked) [Compound 15, 1-(4-((3,5-dimethylpiperazin-1-yl)methyl)piperidin-1-yl)-3,3-di-o-tolylpropan-1-one] |
| 5850 | 3710 | Cc1ccccc1C(CC(=O)N1CCC(C(=O)N2CC(C)NC(C)C2)CC1)c1ccccc1C (centres unmarked) [Compound 16, 1-(4-(3,5-dimethylpiperazine-1-carbonyl)piperidin-1-yl)-3,3-di-o-tolylpropan-1-one] |
| 3520 | 1880 | Cc1ccccc1C(CC(=O)N1CCC(C(=O)N2CCNCC2)CC1)c1ccccc1C [Compound 17, 1-(4-(piperazine-1-carbonyl)piperidin-1-yl)-3,3-di-o-tolylpropan-1-one] |
| 1860 | 1180 | CC1CN(CC2CCN(C(=O)COC(c3ccccc3)c3ccccc3)CC2)CC(C)N1 (centres unmarked) [Compound 18, 2-(benzhydryloxy)-1-(4-((3,5-dimethylpiperazin-1-yl)methyl)piperidin-1-yl)ethanone] |
| 8720 | 3000 | CC1CN(C(=O)C2CCN(C(=O)CNC(c3ccccc3)c3ccccc3)CC2)CC(C)N1 (centres unmarked) [Compound 20, 2-(benzhydrylamino)-1-(4-(3,5-dimethylpiperazine-1-carbonyl)piperidin-1-yl)ethanone] |
| 1640 | 990 | CC1CN(C(=O)C2CCN(C(=O)COC(c3ccccc3)c3ccccc3)CC2)CC(C)N1 (centres unmarked) [Compound 21, 2-(benzhydryloxy)-1-(4-(3,5-dimethylpiperazine-1-carbonyl)piperidin-1-yl)ethanone] |
| > 4700 | > 3910 | CC1CN(CC2CCN(C(=O)CC(c3ccccc3)c3ccccc3)CC2)CC(C)N1 (centres unmarked) [Compound 23, 1-(4-((3,5-dimethylpiperazin-1-yl)methyl)piperidin-1-yl)-3,3-diphenylpropan-1-one] |
| > 5460 | > 3570 | CC1CN(C(=O)C2CCN(C(=O)CC(c3ccccc3)c3ccccc3)CC2)CC(C)N1 (centres unmarked) [Compound 24, 1-(4-(3,5-dimethylpiperazine-1-carbonyl)piperidin-1-yl)-3,3-diphenylpropan-1-one] |
| > 6490 | 9870 | CC1CN(C(=O)C2CCN(C(=O)NC(c3ccccc3)c3ccccc3)CC2)CC(C)N1 (centres unmarked) [Compound 25, N-benzhydryl-4-(3,5-dimethylpiperazine-1-carbonyl)piperidine-1-carboxamide] |
| 1310 | 850 | CC1CN(C(=O)C2(c3ccccc3)CCN(C(=O)CC(c3ccccc3)c3ccccc3)CC2)CC(C)N1 (centres unmarked) [Compound 26, 1-(4-(3,5-dimethylpiperazine-1-carbonyl)-4-phenylpiperidin-1-yl)-3,3-diphenylpropan-1-one] |
| 410 | 240 | Cc1ccccc1C(CC(=O)N1CCC(C(=O)N2CC(C)NC(C)C2)(c2ccccc2)CC1)c1ccccc1C (centres unmarked) [Compound 27, 1-(4-(3,5-dimethylpiperazine-1-carbonyl)-4-phenylpiperidin-1-yl)-3,3-di-o-tolylpropan-1-one] |
| 2780 | 1610 | CC1CN(C(=O)C2(c3ccccc3)CCN(C(=O)CNC(c3ccccc3)c3ccccc3)CC2)CC(C)N1 (centres unmarked) [Compound 28, 2-(benzhydrylamino)-1-(4-(3,5-dimethylpiperazine-1-carbonyl)-4-phenylpiperidin-1-yl)ethanone] |
| 490 | 320 | CC1CN(CC2(c3ccccc3)CCN(C(=O)CC(c3ccccc3)c3ccccc3)CC2)CC(C)N1 (centres unmarked) [Compound 30, 1-(4-((3,5-dimethylpiperazin-1-yl)methyl)-4-phenylpiperidin-1-yl)-3,3-diphenylpropan-1-one] |
| 610 | 310 | Cc1ccccc1C(CC(=O)N1CCC(CN2CC(C)NC(C)C2)(c2ccccc2)CC1)c1ccccc1C (centres unmarked) [Compound 31, 1-(4-((3,5-dimethylpiperazin-1-yl)methyl)-4-phenylpiperidin-1-yl)-3,3-di-o-tolylpropan-1-one] |
| > 21200 | > 12500 | CN1CCN(C(=O)C2(c3ccccc3)CCN(C(=O)CNC(c3ccccc3)c3ccccc3)CC2)CC1 [Compound 36, 2-(benzhydrylamino)-1-(4-(4-methylpiperazine-1-carbonyl)-4-phenylpiperidin-1-yl)ethanone] |
| 380 | 290 | Cc1ccccc1C(CC(=O)N1CCC(C(=O)N2CCN(C)CC2)(c2ccccc2)CC1)c1ccccc1C [Compound 37, 1-(4-(4-methylpiperazine-1-carbonyl)-4-phenylpiperidin-1-yl)-3,3-di-o-tolylpropan-1-one] |
| > 2290 | 1420 | CN1CCN(C(=O)C2(c3ccccc3)CCN(C(=O)NC(c3ccccc3)c3ccccc3)CC2)CC1 [Compound 38, N-benzhydryl-4-(4-methylpiperazine-1-carbonyl)-4-phenylpiperidine-1-carboxamide] |
| 5210 | 3490 | O=C(NC(c1ccccc1)c1ccccc1)N1CCC(CN2CCCCC2)CC1 [Compound 41, N-benzhydryl-4-(piperidin-1-ylmethyl)piperidine-1-carboxamide] |
| 6590 | 2440 | Cc1ccccc1C(CC(=O)N1CCC(CN2CCCCC2)CC1)c1ccccc1C [Compound 42, 1-(4-(piperidin-1-ylmethyl)piperidin-1-yl)-3,3-di-o-tolylpropan-1-one] |
| 5320 | 5260 | O=C(CNC(c1ccccc1)c1ccccc1)N1CCC(CN2CCCCC2)CC1 [Compound 43, 2-(benzhydrylamino)-1-(4-(piperidin-1-ylmethyl)piperidin-1-yl)ethanone] |

| Structure (SMILES) | IC50 [1] [nM] | IC50 [2] [nM] |
| --- | --- | --- |
| CN1CCN(CC2CCN(C(=O)C[S+]([O-])C(c3ccccc3)c3ccccc3)CC2)CC1 (centres unmarked) [Compound 6, 2-(benzhydrylsulfinyl)-1-(4-((4-methylpiperazin-1-yl)methyl)piperidin-1-yl)ethanone] | 8550 | 5200 |
| CN1CCN(C(=O)C2CCN(C(=O)C[S+]([O-])C(c3ccccc3)c3ccccc3)CC2)CC1 (centres unmarked) [Compound 9, 2-(benzhydrylsulfinyl)-1-(4-(4-methylpiperazine-1-carbonyl)piperidin-1-yl)ethanone] | 2410 | 1800 |
| CC1CN(CC2CCN(C(=O)C[S+]([O-])C(c3ccccc3)c3ccccc3)CC2)CC(C)N1 (centres unmarked) [Compound 19, 2-(benzhydrylsulfinyl)-1-(4-((3,5-dimethylpiperazin-1-yl)methyl)piperidin-1-yl)ethanone] | 3750 | 2400 |
